Data taken from patent US20100112012A1, “MODULATION OF IMMUNE RESPONSES” (CLEVELAND CLINIC FOUNDATION, priority 2005, published 2010).
“Also recorded” adds a separate entry of the source.

Assays:
p53 [1] = experiment: Screening for p53-activating compounds, p53-responsive reporter in RCC45ConALacZ cells; type: cell-based, human
Description: (§1) Transient transfections. 2×10^5 cells were plated into 6-well plates and, after overnight incubation, transfected with Lipofectamin Plus reagent (Gibco BRL) with 0.5 μg of reporter plasmids (p21-ConALuc or pNF-κBLuc) in combination with different concentrations of plasmids expressing p53, Arf, Ss-IκB, or siHDM2. Corresponding empty vectors were added in all transfections up to 2 μg of total DNA. Normalization of transfection efficiency was done by adding 0.2 μg of pCMV-LacZ plasmid. Luciferase activity and β-galactosidase activity were measured in lysates prepared 48 hours after transfection with Cell Lysis Buffer (Promega) by the luciferase assay system (Promega) or β-galactosidase enzyme system (Promega). Luminometric and colorimetric reactions were read on the Wallack 1420 plate reader (Perkin Elmer). Stable transduction of reporters. 2×10^4 cells with integrated reporter were plated in 96-well plates. After overnight incubation, chemicals or media from lentivirus-producing cells were added. At different times, cell lysates were prepared using Reporter Lysis Buffer (Promega). Luciferase or β-galactosidase activity and protein concentration were measured in aliquots of cell lysates using standard kits (Promega, Luciferase and β-galactosidase assay systems, Biorad Protein Assay Kit).
The DiverSet library of 34,000 chemical compounds and focused libraries of structural analogues of selected hits were provided by Chembridge, Calif. Cell lines with p53- or NF-κB-responsive luciferase or β-galactosidase reporters were described previously (5, 7). For screening chemicals, 2×10^4 RCC45ConALacZ cells (RCC45-based p53 reporter cells) were plated per well of 96-well plates in 200 μL of phenol-red-free RPMI medium with standard additions. After overnight incubation, the compounds were added to final concentrations of 5-15 μM (0.2 μL of compound in DMSO per well). […] After 24 h, lysis buffer with ortho-nitrophenyl-β-D-galactopyranoside (ONPG) was added and β-galactosidase activity was estimated colorimetrically by a multiwell plate reader.

RCC cell lines = experiment: Growth inhibition assay, RCC, non-RCC and normal kidney (NKE) cells; type: cell-based, human; conditions: 6 RCC and 6 non-RCC cell lines, growth inhibition assay
Description: Growth inhibition assay. […] Cell survival was estimated after an additional 48 hours, using standard Methylene Blue staining followed by extraction and colorimetrical detection of the dye.

IκBα = IκBα level (Western analysis); type: cell-based, human; conditions: TNF 10 ng/ml, 9AA 10 μM
Description: Cells were lysed in RIPA buffer (25 mM Tris HCl, pH 7.2, 125 mM NaCl, 1% NP40, 1% sodium deoxycholate, 1 mM EDTA) containing 1 mM PMSF (Sigma), 10 ug/ml of aprotinin (Sigma) and 10 ug/ml of leupeptin (Sigma). Protein concentrations were determined with the BioRad Dc protein assay kit. Equal protein amounts were run on gradient 4-20% precast gels (Novex) and blotted onto PVDF membranes (Amersham). The following antibodies were used: anti-p53—monoclonal mouse DO1 (Santa-Cruz), anti-p21—monoclonal mouse F-5 (Santa-Cruz), anti-mdm2—monoclonal mouse SMP14 (Santa-Cruz), anti-p65—(C20, Santa Cruz), anti-phospho-p65—(ser536, Cell Signaling), anti-IκBa—(C21, Santa Cruz), anti-p50—(NLS, Santa Cruz), anti-IKK1 (Cell Signaling), anti-γH2X (Cell Signaling), anti-actin (Santa Cruz). p53 phosphorylation status was analyzed using the phospho-p53 sampler kit from Cell Signaling according to the manufacturer's recommendations. HRP-conjugated secondary antibodies were purchased from Santa Cruz. Quantitation of the data was performed using Quantity One software from BioRad.

NF-κB = experiment: NF-κB-dependent reporter in H1299-NF-kBLuc cells; type: cell-based, human; conditions: TNF 10 ng/ml
Description: as §1

p53 [2] = experiment: p53 reporter in organ cultures of human RCC tumor samples; type: cell-based; conditions: 12 hours
Description: FIG. 11. QC can activate p53 transactivation in organ cultures of human RCC tumor samples. Fresh surgically removed samples of tumor and adjacent normal kidney were cut into small pieces and put into media containing ConALacZ virus (5×10^7 TU/ml) with […] of polybrene for 4 hours. 24 hours after infection, tissue pieces (at least three per treatment) were incubated with media containing quinacrine or doxorubicin for 12 hours. Then the tissues were fixed for 30 min in PBS containing 0.5% glutaraldehyde and 1 mM MgCl2. Pieces of tumor were stained in PBS solution containing X-gal (1 mM MgCl2, 3.3 mM K4Fe(CN)6, 3.3 mM K3Fe(CN)6, 0.02% NP40, 0.2% X-gal) overnight at 37° C. Stained specimens were analyzed microscopically by squeezing pieces of tumor and normal tissues between two glass slides.

[3] = test system: hapten-specific CD8 T cells producing IFN-γ; experiment: ELISPOT assay of hapten-specific CD8 T cells producing IFN-γ; type: in vivo, BALB/c mice; conditions: day +5
Description: ELISPOT assays to enumerate hapten-specific T cells producing IFN-γ were performed as previously described. Briefly, ELISPOT plates (Millipore, Bedford, Mass.) were coated with 100 ml of […] anti-IFN-γ mAb R26A2 and incubated overnight at […]. The plates were blocked with 1% BSA in PBS for 90 min at 37° C. and washed four times with PBS. LNC suspensions from DNFB-sensitized mice were prepared on day +5 after sensitization and CD8 + T cells were enriched by negative selection using Dynabeads (Dynal A. S., Oslo, Norway). The efficiency of CD4+ T cell depletion was >95% as assessed by flow cytometry. Syngeneic spleen cells from naive mice were treated with […] mitomycin C, hapten-labeled by incubation with DNBS ([…]), and used as stimulator cells. Responder LNC were resuspended in serum-free HL-1 medium (BioWhittaker, Walkersville, Md.) and cultured at 3×10^5 cells/well with 5×10^5 stimulator cells/well 24 h at 37° C. in 5% CO2. In all experiments responder CD8+ T cells cultured with unlabeled splenocytes and LNC from naive mice cultured with DNBS-labeled stimulator cells were used as negative controls. […] The resulting spots were counted on an ImmunoSpot Series 1 Analyzer (Cellular Technologies Ltd., Cleveland, Ohio) that was designed to detect spots with predetermined criteria for size, shape and colorimetric density. […]

## CCN(CC)CCCC(C)Nc1c2ccc(Cl)cc2nc2ccc(OC)cc12 (stereo not drawn) [QC, quinacrine]
p53 [1]
  activation of the p53-dependent reporter (p53 transactivation) in RCC: effective inducer of p53 transactivation in RCC
RCC cell lines
  IC50 in RCC cells compared with non-RCC cells: in the same range as for non-RCC cells
IκBα
  TNF-stimulated induction of IκBα: blocked
NF-κB; H1299-NF-kB-Luc cells
  basal and TNF-induced NF-κB reporter activities: strong dose-dependent suppression; also recorded: capable of inhibiting both basal and TNF-induced activities of NF-κB
NF-κB; H1299-NF-κBLuc cells
  timing of addition relative to TNF needed to inhibit NF-κB: can inhibit NF-κB when added before, simultaneously with or after TNF stimulation
p53 [2]; organ cultures of adjacent normal kidney
  p53-responsive reporter induction in normal kidney samples: no reporter induction
p53 [2]; organ cultures of human RCC
  expression of a p53-responsive reporter in tumor samples: can be also detected in short-term organ cultures; also recorded: induced expression of a p53-responsive reporter in tumor samples
[3]; quinacrine on days 0 and +1 (during sensitization)
  increase in priming of antigen-specific effector T cells: ~3 fold
[3]; quinacrine on days −2 and −1 (just prior to sensitization)
  priming of antigen-specific T cells (IFN-γ producing CD8 T cells): inhibits the priming of antigen-specific T cells; also recorded: decreased the priming of antigen-specific T cells
